Reference: PubChem BioAssay (NCI)
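Compound exposure: 48 hours, 5 concentrations, 96-well plates. The concentration for 50% growth inhibition is given as GI50. TGI marks complete inhibition of growth.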

Tests used:
Assay in all cases: NCI anticancer screen, dose series, 48 h
[1] = test system: UACC-257 melanoma
[2] = test system: SF-295 CNS
[3] = test system: HOP-62 NSCLC
[4] = test system: HCT-116 colon
[5] = test system: UO-31 renal
[6] = test system: A549 NSCLC
[7] = test system: HCC-2998 colon
[8] = test system: HL-60(TB) leukemia
[9] = test system: HOP-92 NSCLC
[10] = test system: OVCAR-8 ovarian
[11] = test system: COLO 205 colon
[12] = test system: BT-549 breast
[13] = test system: MOLT-4 leukemia
[14] = test system: K-562 leukemia
[15] = test system: LOX IMVI melanoma
[16] = test system: HT29 colon
[17] = test system: SK-OV-3 ovarian
[18] = test system: OVCAR-5 ovarian
[19] = test system: HCT-15 colon
[20] = test system: IGROV1 ovarian
[21] = test system: SNB-75 CNS
[22] = test system: OVCAR-3 ovarian
[23] = test system: NCI/ADR-RES ovarian
[24] = test system: NCI-H460 lung
[25] = test system: M14 melanoma
[26] = test system: SR leukemia
[27] = test system: HS 578T breast
[28] = test system: CCRF-CEM leukemia

**Q.** How did the GI50 [1] turn out when `CC/C(=C(/c1ccc(O)cc1)c1ccc(OCCNC)cc1)c1ccccc1` was run?
**A.** 1.64 µM

**Q.** What about the TGI [1] of the same compound?
**A.** 3.15 µM

**Q.** What about the GI50 [2] of the same compound?
**A.** 1.95 µM

**Q.** And the TGI [2]?
**A.** 3.95 µM

**Q.** And the GI50 [3]?
**A.** 2.03 µM

**Q.** What about the TGI [3] of the same compound?
**A.** 4.44 µM

**Q.** And the GI50 [4]?
**A.** 1.68 µM

**Q.** What about the TGI [4] of the same compound?
**A.** 3.12 µM

**Q.** And the GI50 [5]?
**A.** 1.86 µM

**Q.** What about the TGI [5] of the same compound?
**A.** 4.8 µM

**Q.** What about the GI50 [6] of the same compound?
**A.** 1.89 µM

**Q.** And the TGI [6]?
**A.** 3.95 µM

**Q.** What about the GI50 [7] of the same compound?
**A.** 1.9 µM

**Q.** And the TGI [7]?
**A.** 3.46 µM

**Q.** And the GI50 [8]?
**A.** 2.03 µM

**Q.** What about the TGI [8] of the same compound?
**A.** 4.55 µM

**Q.** What about the GI50 [9] of the same compound?
**A.** 1.18 µM

**Q.** And the TGI [9]?
**A.** 3.72 µM

**Q.** And the GI50 [10]?
**A.** 2.14 µM

**Q.** And the TGI [10]?
**A.** 5.13 µM

**Q.** What about the GI50 [11] of the same compound?
**A.** 1.97 µM

**Q.** What about the TGI [11] of the same compound?
**A.** 3.59 µM

**Q.** And the GI50 [12]?
**A.** 3.37 µM

**Q.** What about the TGI [12] of the same compound?
**A.** 13.9 µM

**Q.** What about the GI50 [13] of the same compound?
**A.** 2.46 µM

**Q.** What about the TGI [13] of the same compound?
**A.** 7.14 µM

**Q.** What about the GI50 [14] of the same compound?
**A.** 1.86 µM

**Q.** And the TGI [14]?
**A.** 4.41 µM

**Q.** What about the GI50 [15] of the same compound?
**A.** 1.75 µM

**Q.** What about the TGI [15] of the same compound?
**A.** 3.17 µM

**Q.** What about the GI50 [16] of the same compound?
**A.** 2.02 µM

**Q.** What about the TGI [16] of the same compound?
**A.** 3.83 µM

**Q.** What about the GI50 [17] of the same compound?
**A.** 3.45 µM

**Q.** What about the TGI [17] of the same compound?
**A.** 12 µM

**Q.** What about the GI50 [18] of the same compound?
**A.** 2.37 µM

**Q.** What about the TGI [18] of the same compound?
**A.** 6.25 µM

**Q.** What about the GI50 [19] of the same compound?
**A.** 1.87 µM

**Q.** And the TGI [19]?
**A.** 4.07 µM

**Q.** And the GI50 [20]?
**A.** 2.77 µM

**Q.** And the TGI [20]?
**A.** 7.66 µM

**Q.** What about the GI50 [21] of the same compound?
**A.** 1.43 µM

**Q.** What about the TGI [21] of the same compound?
**A.** 5.24 µM

**Q.** What about the GI50 [22] of the same compound?
**A.** 2.1 µM

**Q.** And the TGI [22]?
**A.** 4.52 µM

**Q.** And the GI50 [23]?
**A.** 2.32 µM

**Q.** And the TGI [23]?
**A.** 5.85 µM

**Q.** And the GI50 [24]?
**A.** 1.84 µM

**Q.** And the TGI [24]?
**A.** 3.37 µM

**Q.** And the GI50 [25]?
**A.** 1.69 µM

**Q.** What about the TGI [25] of the same compound?
**A.** 3.31 µM

**Q.** What about the GI50 [26] of the same compound?
**A.** 2.09 µM

**Q.** What about the TGI [26] of the same compound?
**A.** 5.46 µM

**Q.** And the GI50 [27]?
**A.** 1.87 µM

**Q.** And the TGI [27]?
**A.** 5.16 µM

**Q.** And the GI50 [28]?
**A.** 2.39 µM

**Q.** What about the TGI [28] of the same compound?
**A.** 6.88 µM
